Measurements reported in article PMC4929710, “Specificity and mechanism of action of alpha-helical membrane-active peptides interacting with model and biological membranes by single-molecule force spectroscopy” (Scientific Reports, 2016).

Columns and labels:
3T3-L1 cells = test: Single-molecule force spectroscopy (AFM); format: binding, mouse; details: RMS ± SD; N-terminal Cys peptide on AFM tip via PEG linker
Text: (§1) Based on the above results, five selected peptides of V13L, A12L/A20L, V13K, V13E, and L6A/L17A, with different hydrophobicity and charges were used to examine the interaction probabilities and forces between peptides and membranes, both on the lipid model membranes and on the biological membranes by SMFS based on AFM, respectively. A cysteine residue was covalently introduced to the N-terminus of peptides and provided a free sulfhydryl group to modify the tips of the AFM. A PEG linker was used since each heterobifunctional PEG–NHS linker (approximately 20 nm) can only covalently connect with a single peptide molecule, which guarantees a single-molecule interaction between MAPs and biological membranes in real time[19]. If an AFM tip was functionalized with two or more peptides, where several peaks were recorded. In the reports, data with two peaks were not collected and calculated. For one force–distance cycle, one peptide-functionalized AFM tip approached the model and biological membranes right on the top, and the subsequent tip was withdrawn from the cell membranes to retrace the process. […] In addition, blocking experiment was used to test the specificity of these force events. As the electrostatic attraction is one important reason for peptides approaching model membranes and biological membranes, the Tris-HCl buffer including plenty amino groups[20] was injected into the working chamber and inhibits the interactions between MAPs and model membranes/biological membranes. […] The unbinding forces of V13L against different model membranes and biological membranes with the loading rate of 1 × 10^5 pN s^−1 are shown in Fig. 3c,f–h,j–l.
(§2) The AFM tip was first washed with concentrated sulfuric acid and hydrogen peroxide (3:1, v:v). The tip was dried using ozone (O3) for 15 min and dried overnight in a dryer. The tip was then modified with APTES under an argon atmosphere and the peptide connected with a PEG–NHS linker. Finally, the AFM tip linked with the peptide was washed three times in PBS and kept at 4 °C. A 500-μL LUV suspension was deposited on Lys coated glass and the LUVs were absorbed on the surface for 1 h at 65 °C [9][29]. A. laidlawii was deposited on poly-L-lysine coated glass and absorbed for 1 h at 37 °C [30]. The 3T3-L1 and HeLa cells were cultured on glass slides in Dulbecco’s modified Eagle’s medium (DMEM). Before performing force spectroscopy experiments, the cells were washed with fresh DMEM three times to remove the cell metabolites. Isolation of chicken erythrocytes was carried out at room temperature. Then the erythrocytes were washed three times in 2 mL PBS buffer by centrifuge (1,000 rpm) and resuspended in PBS buffer. 200 μL erythrocyte suspension were deposited onto poly-L-lysine coated glass for 20 min[10]. […]

PC/Chol (8:1 w/w) LUVs = test: Tryptophan fluorescence with LUVs; format: binding; details: PC/Chol (8:1 w/w) LUVs versus HEPES buffer, 25 °C
Text: (§3) In order to investigate the interaction between peptides and difference types of cell membranes, three different LUVs were used to mimic a prokaryotic cell membrane (PC/PG), a normal eukaryotic cell membrane (PC/Chol), and a cancer cell membrane (PC/SM/PE/PS/Chol). Tryptophan residue in the peptide sequence was used as a fluorescent probe to examine the interaction of peptides with model membranes. […] For example, in the PC/PG (7:3 w/w) anionic prokaryotic mimicking model membrane, peptides V13L and A12L/A20L had the strongest hydrophobicity with blue shift values of approximately 37 nm and 38 nm, respectively. Conversely, peptide V13E with a negative charge of glutamic acid residue, and peptide L6A/L17A with the lowest hydrophobicity had blue shift values of approximately 18 nm and 17 nm, respectively. […] In addition, within PC/SM/PE/PS/Chol (4.35:4.35:1:0.3:1 w/w) as a cancer-mimicking model membrane, the same results could be obtained in that peptide hydrophobicity correlates with anticancer activity and the blue shift values of peptides.
(§4) In accordance with previously described methods, LUVs were prepared with PC/PG (7:3 w/w), PC/Chol (8:1 w/w), and PC/SM/PE/PS/Chol (4.35:4.35:1:0.3:1 w/w) to mimic prokaryotic cell, […], membranes, respectively. Lipids using the freeze-thaw method as described previously, followed by extrusion through […] double-stacked nuclepore filters using an Mini-Extruder (Avanti Polar Lipids, Inc.)[11][27].
(§5) Three kinds of LUVs were prepared and cultured in HEPES buffer (pH 7.4, 10 mM HEPES, 150 mM NaCl) and the molar concentration was adjusted to 100 μM. A total of 14 μL of 100 μM MAPs was mixed with 686 μL of 100 μM liposomes at 25 °C for 10 min. A Shimadzu RF-5301PC, (excitation wavelength of […], emission wavelength of 300–450 nm) was used to measure the tryptophan fluorescence. Potassium iodide (KI) as a quencher was added to the previous reaction system for a final concentration of 0.02–0.08 M, respectively. The experimental data were plotted according to the Stern–Volmer equation F0/F = 1 + Ksv[Q], where F0 and F are the fluorescence intensity in the absence or presence of a quencher at concentration [Q], respectively, and Ksv is the Stern–Volmer quenching constant.

[1] = system: PC/SM/PE/PS/Chol (4.35:4.35:1:0.3:1 w/w) LUVs; test: Tryptophan fluorescence with LUVs; format: binding; details: PC/SM/PE/PS/Chol (4.35:4.35:1:0.3:1 w/w) LUVs versus HEPES buffer, 25 °C
Text: as §3, §4, §5

HeLa cells = test: Single-molecule force spectroscopy (AFM); format: binding, human; details: RMS ± SD; N-terminal Cys peptide on AFM tip via PEG linker
Text: as §1, §2

[2] = Circular dichroism (CD) analysis; format: physicochemical; details: for α-Helix (%) 50% TFE / α-Helix (%) Benign: relative to molar ellipticity of A12L/A20L in 50% TFE; for [θ]222 Benign / [θ]222 50% TFE: CD, 25 °C; for [θ]222 Benign: benign buffer pH 7.0, 100 mM KCl, 50 mM KH2PO4/K2HPO4; for [θ]222 50% TFE: benign buffer:TFE 1:1 vol/vol; for α-Helix (%) Benign: benign buffer
Procedure: The secondary structures of the peptides were determined using a Jasco J-810 CD spectrometer (Jasco, Easton, MD) at 25 °C [12]. The benign buffer (pH 7.0, 100 mM KCl, 50 mM KH2PO4/K2HPO4) was used to simulate the hydrophilic environment and 50% 2,2,2-trifluoroethanol (TFE) (benign buffer: TFE = 1: 1, vol/vol) was used to simulate the hydrophobic environment. The mean residue molar ellipticities at 222 nm, [θ]222 (degree·cm^2·dmol^−1), were used to calculate the relative helical contents of MAPs[24].
CD spectroscopy illustrated the secondary structure of peptide analogs under benign environment and 50% TFE to mimic the hydrophobic conditions of cell membranes. CD results are shown in Supplementary Table S2 and Fig. S1. […] The helical content (%) of peptides in two groups relative to the molar ellipticity value of the peptide A12L/A20L in 50% TFE. In addition, except the peptide of V13E, the relative helicity of the peptides are in the same order of V13L>V13A>V13S>V13K and A12L/A20L>A20L>L6A>L6A/L17A in the benign and hydrophobic environments and also in the same order with the peptide hydrophobicity.

Row | Compound | Unbinding force 3T3-L1 (3T3-L1 cells) [pN] | PC/Chol Blue shift (PC/Chol (8:1 w/w) LUVs) [nm] | PC/SM/PE/PS/Chol Blueshift [1] [nm] | Unbinding force HeLa (HeLa cells) [pN] | α-Helix (%) 50% TFE [2] [%] | [θ]222 Benign [2] [degree·cm^2·dmol^−1] | [θ]222 50% TFE [2] [degree·cm^2·dmol^−1] | α-Helix (%) Benign [2] [%]
1 | CC[C@H](C)[C@H](NC(=O)[C@H](C)NC(=O)[C@H](CCCCN)NC(=O)[C@H](CC(C)C)NC(=O)[C@H](C)NC(=O)[C@@H](NC(=O)[C@H](Cc1cnc[nH]1)NC(=O)[C@H](CC(C)C)NC(=O)[C@@H](NC(=O)[C@@H](NC(=O)[C@H](CCCCN)NC(=O)[C@H](CCCCN)NC(=O)[C@H](C)NC(=O)[C@H](CO)NC(=O)[C@H](CCCCN)NC(=O)[C@H](Cc1ccccc1)NC(=O)[C@@H](NC(=O)[C@H](CCCCN)NC(=O)[C@H](CC(C)C)NC(=O)[C@H](Cc1ccccc1)NC(=O)[C@H](CO)NC(=O)[C@H](CCCCN)NC(=O)[C@H](Cc1c[nH]c2ccccc12)NC(=O)[C@H](CCCCN)NC(C)=O)[C@@H](C)O)[C@@H](C)O)C(C)C)[C@@H](C)O)C(=O)N[C@@H](CO)C(=O)N[C@@H](CO)C(N)=O [Peptide V13K] | 51 ± 15 | 4 | 27 | 52 ± 20 | 69.85 | −4236.54 | −30268.40 | 9.77
2 | Ac-KWKSFLKTFKSALKTVLHTALKAISS-NH2 [Peptide V13L] | 30 ± 11 | 11 | – | 31 ± 10 | 90.73 | −10502.62 | −39315.30 | 24.24
3 | Ac-KWKSFLKTFKSAEKTVLHTALKAISS-NH2 [Peptide V13E] | 51 ± 11 | 1 | 23 | 36 ± 14 | 43.13 | −3876.86 | −18689.59 | 8.95
4 | Ac-KWKSFAKTFKSAKKTVAHTALKAISS-NH2 [L6A/L17A] | 39 ± 12 | 0 | 21 | 39 ± 11 | 65.58 | −3589.82 | −28421.80 | 8.28
